Like-named read-outs stand apart in the source and are kept apart here.
What was measured:
[1] = tested on: fourth-stage larvae (L4s) of H. contortus; experiment: L4 motility assay; format: cell-based
Protocol: (§1) The selenophene and thiophene-core ligands (n = 74) (Additional file 1) were screened at a concentration of 20 μM on exsheathed third-stage larvae (xL3s) of H. contortus in 96-well microculture plates (cat. no. 3635; Corning 3650, Life Sciences, Corning, USA) using relevant control compounds (i.e. moxidectin and monepantel), as described previously. In brief, compounds were dissolved to a stock concentration of 10 mM in either dimethyl sulfoxide (DMSO) or methanol (Sigma-Adrich Scientific, St. Louis, USA). These ligands were then individually diluted to the final concentration of 20 μM using Luria Bertani medium (LB) supplemented with 100 IU/ml of penicillin, 100 μg/ml of streptomycin and 2.5 μg/ml of amphotericin (LB*). Compounds were dispensed (in triplicate) into the wells of a 96-well microculture plate using a multichannel pipette. In addition, the negative controls (LB*, LB* + 0.5 % solvent; six wells each), and positive controls (20 μM of monepantel; Zolvix, Novartis Animal Health, Basel, Switzerland and 20 μM of moxidectin; Cydectin, Virbac, Carros, France; triplicate wells) and xL3s (~300/well) were dispensed into wells of the plate using an automated multichannel pipette (Viaflo Assist/II, Integra Biosciences, Zizers, Switzerland). […], a video recording (5 s) was taken of each well of the 96-well microculture plate (containing xL3s) using a greyscale camera (Rolera Bolt CMOS, Qimaging Scientific, Surrey, Canada) and a motorised X-Y axis stage (BioPoint 2, Ludl Electronics Products, Hawthorne, USA). Individual videos were processed to calculate a motility index (MI) using an algorithm described previously. MIs were normalised to the negative and positive controls (to remove plate-to-plate variation) using the program Prism (v.6 GraphPad Software, USA). Z’-scores were calculated to validate the performance of the screening assay; reliable assays achieve Z’-scores of between 0.5 and 1 [28]. […] Compounds that reduced the motility of xL3s were also tested for their ability to inhibit the motility of L4s (same protocol as for xL3s) and/or to affect the development of xL3s to L4s. Following the measurement of L4 motility, larvae were re-incubated for 4 more days and fixed with 1 % iodine (50 μl). Then, L4 development was assessed based on the presence of a well-developed mouth/pharynx using a light microscope and expressed as a percentage of the total number of larvae examined (n = 30).
(§2) All assays (to assess xL3 motility, L4 development and L4 motility) were performed in triplicate, three times, on separate days.

[2] = tested on: exsheathed third-stage larvae (xL3s) of H. contortus; experiment: xL3 motility assay (whole-organism screen and dose-response); format: cell-based, Haemonchus contortus
Protocol: as §1, with “[28]. A compound was recorded as having an activity if it reduced xL3 motility by ≥ 70 % following incubation for 72 h.” for “[28].”
as §2

[3] = Haemonchus contortus, 24 h; read-out: L4 motility (IC50s in μM)
[4] = Haemonchus contortus, 48 h; read-out: L4 motility (IC50s in μM)
[5] = Haemonchus contortus, 72 h; read-out: L4 motility (IC50s in μM)
[6] = Haemonchus contortus, 24 h; read-out: xL3 motility (IC50s in μM)
[7] = Haemonchus contortus, 48 h; read-out: xL3 motility (IC50s in μM)
[8] = Haemonchus contortus, 72 h, 20 μM, 72 h; percent of motility compared with controls; mean of triplicate ± SEM; read-out: xL3 Motility Index(%)
[9] = Haemonchus contortus, 72 h; read-out: xL3 motility (IC50s in μM)
[10] = Haemonchus contortus; 20 μM, 72 h; read-out: inhibition of xL3 motility in the primary screen

## Oc1ccc(-c2cscc2-c2ccc(O)cc2Cl)c(Cl)c1 [MJ-17]
[1]; [3]
  IC50: 13.9 µM
[1]; [4]
  IC50: 6.2 µM
[1]; [5]
  IC50: 6.1 µM
[1]; Haemonchus contortus; read-out: L4 motility IC50 at both 48 h and 72 h
  IC50: 6.1 to 6.2 µM
[2]; [6]
  IC50: 25.7 µM
[2]; [7]
  IC50: 25.6 µM
[2]; [8]
  activity at 20 µM: 20.6 ± 4.9%
[2]; [9]
  IC50: 23.8 µM
[2]; [10]
  inhibition at 20 µM: > 70%
[2]; Haemonchus contortus; read-out: xL3 motility IC50 at both 48 h and 72 h
  IC50: 23.8 to 25.6 µM

## Cc1cc(O)ccc1-c1ccc(-c2ccc(O)cc2F)s1 [MJ-22]
[1]; [3]
  IC50: 6.4 µM
[1]; [4]
  IC50: 3.2 µM
[1]; [5]
  IC50: 6.2 µM
[2]; [6]
  IC50: 6.6 µM
[2]; [7]
  IC50: 7.2 µM
[2]; [8]
  activity at 20 µM: 6.7 ± 8.2%
[2]; [9]
  IC50: 9.6 µM
[2]; [10]
  inhibition at 20 µM: > 70%

## C[C@](C#N)(COc1cc(C#N)ccc1C(F)(F)F)NC(=O)c1ccc(SC(F)(F)F)cc1 [Monepantel, reference compound]
[1]; [3]
  IC50: 4.3 µM
[1]; [4]
  IC50: 2.2 µM
[1]; [5]
  IC50: 3 µM
[2]; [6]
  IC50: ~52.1 µM
[2]; [7]
  IC50: 6 µM
[2]; [9]
  IC50: 0.4 µM

## CO/N=C1\C[C@]2(C[C@@H]3C[C@@H](C/C=C(\C)C[C@@H](C)/C=C/C=C4\CO[C@@H]5[C@H](O)C(C)=C[C@@H](C(=O)O3)[C@]45O)O2)O[C@H](/C(C)=C/C(C)C)[C@H]1C [Moxidectin, reference compound]
[1]; [3]
  IC50: 2.2 µM
[1]; [4]
  IC50: 0.6 µM
[1]; [5]
  IC50: 0.0045 µM
[2]; [6]
  IC50: 2.5 µM
[2]; [7]
  IC50: 2.5 µM
[2]; [9]
  IC50: 2.3 µM

## Oc1ccc(-c2ccc(-c3ccc(O)cc3Cl)[se]2)c(Cl)c1 [WZY-2]
[1]; Haemonchus contortus, 24 h, read-out: L4 motility (IC50s in μM)
  IC50: 9.3 µM
[1]; Haemonchus contortus, 48 h, read-out: L4 motility (IC50s in μM)
  IC50: 6.1 µM
[1]; Haemonchus contortus, 72 h, read-out: L4 motility (IC50s in μM)
  IC50: 6.2 µM
[2]; Haemonchus contortus, 24 h, read-out: xL3 motility (IC50s in μM)
  IC50: 10 µM
[2]; Haemonchus contortus, 48 h, read-out: xL3 motility (IC50s in μM)
  IC50: 13 µM
[2]; Haemonchus contortus, 72 h, read-out: inhibition of xL3 motility in the primary screen
  inhibition at 20 µM: > 70%
[2]; Haemonchus contortus, 72 h, read-out: xL3 Motility Index(%), 20 μM, 72 h; percent of motility compared with controls; mean of triplicate ± SEM
  activity at 20 µM: 12.3 ± 0.1%
[2]; Haemonchus contortus, 72 h, read-out: xL3 motility (IC50s in μM)
  IC50: 12.1 µM
